Reference: patent publication US10100030B2 (Kissei Pharmaceutical Co., Ltd., priority 2013, dated 2018)
Where two headings read alike, the source gives them in different places.

What was measured:
human NK1 receptor [1] = target: T1, human NK1 receptor (Homo sapiens (Human), UniProt P25103); assay: Inhibitory effect on human NK1 receptor (substance P-induced increase in intracellular calcium concentration); assay type: cell-based; details: HEK-293T; substance P 1 μM, compound 0.1 μM; human NK1 receptor-expressing 293T cells; read-out: SPRR (Substance P-Response Remaining)
T1 sequence (P25103 whole entry): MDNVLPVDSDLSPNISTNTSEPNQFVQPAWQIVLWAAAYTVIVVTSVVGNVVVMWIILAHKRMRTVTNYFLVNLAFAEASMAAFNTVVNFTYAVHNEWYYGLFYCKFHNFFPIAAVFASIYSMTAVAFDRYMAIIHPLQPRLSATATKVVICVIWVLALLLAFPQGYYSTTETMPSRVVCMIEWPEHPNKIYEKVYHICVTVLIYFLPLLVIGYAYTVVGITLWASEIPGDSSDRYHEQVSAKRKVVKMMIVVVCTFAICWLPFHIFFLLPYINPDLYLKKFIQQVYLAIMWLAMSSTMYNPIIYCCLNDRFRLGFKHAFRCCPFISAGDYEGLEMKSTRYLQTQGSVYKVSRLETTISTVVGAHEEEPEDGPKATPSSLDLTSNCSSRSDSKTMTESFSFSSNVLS
Procedure: Inhibitory Effect on Human NK1 Receptor
(1) Preparation of Human NK1 Receptor-expressing Cells
Human NK1 receptor-expressing cells were prepared by the same methods as those described in 2-3 and 2-4 of Test Example 1.
(2) Study on Inhibitory Effect on Increase in Intracellular Calcium Concentration
The human NK1 receptor-expressing cells were washed with 300 μL/well of a washing solution (20 mM HEPES/Hank's Balanced Salt Solution (HBSS) […]). A fluorescent calcium indicator (Fluo-4 Direct Calcium Assay Kit, Life Technologies, containing 0.42 mM probenecid and 0.1% bovine serum albumin, prepared according to the protocol of the product) was added to the wells at 150 μL/well, and the plate was incubated at 37° C. for 30 minutes in an incubator. Then, DMSO solutions of a test compound, which were prepared at an 80-time higher concentration using 100% dimethyl sulfoxide (DMSO), were added to the wells at 2.5 μL/well (final concentrations of 0.1, 1 and 10 μM), and the solutions were mixed. Then, the plate was further incubated at 37° C. for 30 minutes in an incubator. After 30 minutes, the intracellular calcium concentrations were measured immediately.
The intracellular calcium concentrations were each measured as a fluorescent signal using FDSS (registered trademark) 7000 (Hamamatsu Photonics). A substance P (Peptide Institute, Inc.) solution which was prepared at 0.4 μM or 4 μM using an assay buffer (20 mM HEPES/Hank's Balanced Salt Solution (HBSS) pH 7.3, containing 0.1% bovine serum albumin) was added automatically to each well at 50 μL/well (final concentration of 0.1 or 1 μM) 10 seconds after starting reading, and the fluorescent signal was measured up to 120 seconds.
The intracellular calcium concentration (%) of the cells to which a test compound was added was calculated by the equation below, where the fluorescent signal of the group to which the vehicle (DMSO) was added was regarded as 100%, and the fluorescent signal before the addition of substance P was regarded as 0%. Intracellular calcium concentration(%)=(Fluorescent signal of test compound addition group)/(Fluorescent signal of vehicle addition group)×100
The intracellular calcium concentration (%) calculated was regarded as the remaining agonist activity of substance P (Substance P-Response Remaining: SPRR). In the table, Ex. No. means the Example number. SPRR (%) is the value obtained when the concentration of substance P was 1 μM and the concentration of the compound was 0.1 μM.

human NK1 receptor [2] = target: T1, human NK1 receptor; assay: Affinity for human NK1 receptor (125I-substance P receptor binding test); details: membrane fraction of human NK1 receptor-expressing 293T cells; read-out: IC50 (concentration required for 50% inhibition of 125I-substance P binding)
Procedure: Affinity for Human NK1 Receptor
(3) Measurement of Binding Affinity to Human NK1 Receptor
(3-1) Preparation of Membrane Fraction from Human NK1 Receptor-expressing Cells
Human NK1 receptor-expressing cells were prepared in a 175 cm^2 culture flask (Nippon Becton Dickinson). The formation of a complex of the human NK1 receptor expression plasmid and Lipofectamine 2000 was performed by calculating the culture area ratio and increasing the scale of the method described in the above 2-4 by the ratio. The human NK1 receptor-expressing cells were collected in a buffer solution for the membrane fraction preparation (50 mM Tris (Wako Pure Chemical). 120 mM sodium chloride (Wako Pure Chemical Industries), 5 mM potassium chloride (Wako Pure Chemical Industries), 1 mM ethylenediaminetetraacetic acid (Sigma), 0.002 mg/mL chymostatin (Peptide Institute), 0.04 mg/ bacitracin (Wako Pure Chemical Industries), 0.005 mg/mL phosphoramidon (Peptide Institute) and 0.5 mM phenylmethylsulfonyl fluoride (Wako Pure Chemical Industries), pH7.4) and centrifuged at 1,880 g for 10 minutes, and the cell sediment was suspended in the buffer solution for the membrane fraction preparation. After freezing and thawing the cells once, the cells were homogenized using a Dounce-type homogenizer (cooled on ice, 1000 rpm, 20 times). The homogenized cell suspension was centrifuged at 20,000 rpm for 10 minutes, and the supernatant was removed to obtain cell sediment. The cell sediment was suspended again in the buffer solution for the membrane fraction preparation and homogenized using a Dounce-type homogenizer (cooled on ice, 1000 rpm, 30 times). The cell suspension was centrifuged at 20,000 rpm for 10 minutes, and the supernatant was removed to obtain cell sediment. The same homogenization and centrifugation were repeated again, and final cell sediment was obtained. The final cell sediment was suspended in a buffer solution for the receptor binding test (50 mM Tris (Wako Pure Chemical Industries), 3 mM manganese chloride (Wako Pure Chemical Industries), 0.002 mg/mL chymostatin (Peptide Institute), 0.04 mg/bacitracin (Wako Pure Chemical Industries) and 0.02% bovine serum albumin (Sigma), pH 7.4), and the protein concentration was measured using BCA Protein Assay Kit (Pierce).
(3-2) Receptor Binding Test
The buffer solution for the receptor binding test was dispensed to the wells of a 96-well assay plate (Greiner) at 22.5 μL/well. DMSO solutions of a test compound, which were prepared at an 80-time higher concentration using 100% dimethyl sulfoxide (DMSO), were added to the wells at 2.5 μL/well (final concentrations of 1 nM to 100 nM), and the solutions were mixed. As a radiolabeled ligand, ^125I-substance P (Substance P, [^125I]Tyr^8-, PerkinElmer) was used. ^125I-substance P was diluted with the buffer solution for the receptor binding test to a concentration resulting in […] and added to the 96-well assay plate, and the solutions were mixed. The membrane fraction prepared from the human NK1 receptor-expressing cells was diluted with the buffer solution for the receptor binding test to a concentration resulting in 8 to 10 μg/well, suspended until the suspension became in such a homogenous state that the suspension could flow through as 27G injection needle smoothly and then added to the 96-well assay plate at 150 μL/well. Then, the plate was incubated at room temperature for 60 minutes while shaking the plate. The reaction solutions were suction-filtered. through a multiscreen 96-well filter plate (Millipore) which had been pre-treated with 0.3% polyethyleneimine, and the reaction was terminated by washing with a washing solution (50 mM Tris and 0.02% bovine serum albumin, pH 7.4) four times. The bottom of the microplate was dried at 60° C., and then 100 μL/well of MicroScint 20 (PerkinElmer) was dispensed to the wells. The top of the plate was sealed with TopSeal A (PerkinElmer), and the plate was shaken for 5 to 10 minutes. […]

CYP3A4 [3] = target: T2, CYP3A4 (Homo sapiens (Human), UniProt P08684); assay: Inhibitory effect on CYP3A4 (Luciferin-IPA)
T2 sequence (P08684 whole entry): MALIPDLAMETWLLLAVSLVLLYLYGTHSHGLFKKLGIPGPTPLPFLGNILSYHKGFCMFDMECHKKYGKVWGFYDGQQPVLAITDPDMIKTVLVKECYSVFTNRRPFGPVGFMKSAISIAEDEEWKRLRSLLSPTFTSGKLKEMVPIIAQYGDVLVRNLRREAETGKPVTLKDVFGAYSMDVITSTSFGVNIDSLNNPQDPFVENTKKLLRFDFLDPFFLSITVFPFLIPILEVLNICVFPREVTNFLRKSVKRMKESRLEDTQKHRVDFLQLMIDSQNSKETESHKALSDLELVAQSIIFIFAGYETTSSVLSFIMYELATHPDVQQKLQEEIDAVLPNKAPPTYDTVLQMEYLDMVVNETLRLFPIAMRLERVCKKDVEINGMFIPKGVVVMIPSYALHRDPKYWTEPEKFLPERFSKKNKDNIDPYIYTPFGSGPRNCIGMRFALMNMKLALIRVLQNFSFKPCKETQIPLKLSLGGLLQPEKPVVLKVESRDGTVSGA
Procedure: Enzyme reaction was performed by incubating in a potassium phosphate buffer solution (pH 7.4) containing 1 nM to 20 μM test compound, 3.2 mM magnesium chloride, 0.2 pmol human CYP3A4 (BD Biosciences), 0.5 mM reduced nicotinamide adenine dinucleotide phosphate (NADPH) and 3 μM Luciferin-IPA (Promega) at 37° C. for 10 minutes. The volume of the reaction solution was 50 μL/well. The 30-minute pre-incubation group was incubated at 37° C. for 30 minutes before adding the substrate, the Luciferin-IPA solution (12.5 μL/well). At the end of the enzyme reaction, 50 μL/well of a Luciferin detection reagent (Promega) was added to the wells, and the plate was left at room temperature for 20 minutes. Then, the emission intensities were measured with Infinite M1000 (TECAN). The enzyme activities (%) relative to the value of the group to which the test compound was not added were calculated.

NK1 receptor = NK1 receptor (Meriones unguiculatus (Mongolian jird) (Gerbillus unguiculatus), UniProt Q5DUB1); assay: Effect on GR73632-induced foot-tapping; assay type: in vivo; details: 0.3 mg/kg from the jugular vein, GR73632 after four hours, male gerbil
Sequence of NK1 receptor (Q5DUB1 whole entry): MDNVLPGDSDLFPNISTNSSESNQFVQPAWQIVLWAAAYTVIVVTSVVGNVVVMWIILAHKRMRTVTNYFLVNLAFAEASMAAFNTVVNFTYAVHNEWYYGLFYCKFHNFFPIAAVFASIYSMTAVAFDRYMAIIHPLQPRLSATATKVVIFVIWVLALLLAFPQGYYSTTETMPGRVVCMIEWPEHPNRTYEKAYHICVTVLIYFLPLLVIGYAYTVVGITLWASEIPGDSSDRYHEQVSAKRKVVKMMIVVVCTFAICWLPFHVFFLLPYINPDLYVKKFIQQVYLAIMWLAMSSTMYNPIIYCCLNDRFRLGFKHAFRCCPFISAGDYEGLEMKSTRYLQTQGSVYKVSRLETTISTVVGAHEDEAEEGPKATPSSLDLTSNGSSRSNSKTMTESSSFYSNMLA
Procedure: (1) Effect on Foot-tapping
(§1) A male gerbil (Japan SLC) was anesthetized with isoflurane, and 0.3 mg/kg of a test compound was administered from the jugular vein. After four hours, GR73632 (5 pmol/5 μl), which is an NK1 receptor agonist, was administered into the cerebral ventricle at the part 1 mm lateral to and 4.5 mm below the bregma in the head, under anesthesia with isoflurane. After the administration, the gerbil was moved to an observation cage, and the foot-tapping period during five minutes after the recovery of the righting reflex was measured. The foot-tapping inhibition rate (%) of each test compound was calculated by the following equation. Foot-tapping inhibition rate (%)={1−(Foot-tapping period when test compound was administered)/(Foot-tapping period when solvent was administered)}×100 (2) Measurement of Drug Concentrations
(§2) In the table, Ex. No. means the Example number. Inhibition (%) is the foot-tapping inhibition rate, and Conc. (nM) is the drug concentration in the brain.

[4] = Measurement of drug concentrations in the brain after foot-tapping test; assay type: in vivo; details: male; 0.3 mg/kg iv, after foot-tapping was finished, gerbil brain; read-out: Conc. (drug concentration in the brain)
Procedure: as §1
After foot-tapping was finished, laparotomy was performed immediately under anesthesia with ether, and a blood sample was taken from the abdominal vena cava. At the same time, the brain was extracted. Through a quantitative analysis using liquid chromatography-mass spectrometry (LC/MS), the concentrations of the test compound in the plasma and the brain were measured.
as §2

CYP3A4 [5] = target: T2, CYP3A4; details: background literature; cited from earlier work
[6] = read-out: IC50 (CYP3A4 inhibition), 30-minute pre-incubation group

| SMILES | remaining activity at 0.1 µM (human NK1 receptor [1]) | IC50 (human NK1 receptor [2]) | Inhibition (foot-tapping inhibition rate) (NK1 receptor) | concentration at 4 h [4] | IC50 (CYP3A4 [3]; [6]) | IC50 (CYP3A4 [3]) | inhibitory effect on CYP3A4 (reported) (CYP3A4 [5]) |
| --- | --- | --- | --- | --- | --- | --- | --- |
| Cc1cc(F)ccc1-c1cc(N2CCC([C@H](C)C(=O)O)CC2)ncc1N(C)C(=O)C(C)(C)c1cc(C(F)(F)F)cc(C(F)(F)F)c1 [Example 11, (S)-2-[5′-{[2-(3,5-Bistrifluoromethylphenyl)-2-methylpropionyl]methylamino}-4′-(4-fluoro-2-methylphenyl)-3,4,5,6-tetrahydro-2H-[1,2′]bipyridinyl-4-yl]propionic acid] | 7% | 1.32 nM |  |  |  | 4900 nM |  |
| C[C@@H](O[C@H]1OCCN(Cc2n[nH]c(=O)[nH]2)[C@H]1c1ccc(F)cc1)c1cc(C(F)(F)F)cc(C(F)(F)F)c1 [Aprepitant, aprepitant] |  |  |  |  |  |  | dose-dependent inhibitory effect on CYP3A4 |
| Cc1cc(F)ccc1-c1cc(N2CCC(CC(=O)O)CC2)nc(C#N)c1N(C)C(=O)C(C)(C)c1cc(C(F)(F)F)cc(C(F)(F)F)c1 [Example 6] | 73% | 2.6 nM | 100% | 243 nM | 2600 nM |  |  |
| CC(=O)N1CCN([C@H]2CCN(C(=O)N(C)[C@H](C)c3cc(C(F)(F)F)cc(C(F)(F)F)c3)[C@@H](c3ccc(F)cc3C)C2)CC1 [casopitant] |  |  |  |  |  |  | inhibitory effect on CYP3A4 |
| Cc1cc(F)ccc1-c1cc(N2CCC(C)(CC(=O)O)CC2)nc(C#N)c1N(C)C(=O)C(C)(C)c1cc(C(F)(F)F)cc(C(F)(F)F)c1 [Example 10, [5′-{[2-(3,5-Bistrifluoromethylphenyl)-2-methylpropionyl]methylamino}-6′-cyano-4′-(4-fluoro-2-methylphenyl)-4-methyl-3,4,5,6-tetrahydro-2H-[1,2′]bipyridinyl-4-yl]acetic acid] |  | 3.32 nM | 100% | 219 nM | 3800 nM |  |  |
| Cc1cc(F)ccc1-c1cc(N2CCC(C)(CC(=O)O)CC2)ncc1N(C)C(=O)C(C)(C)c1cc(C(F)(F)F)cc(C(F)(F)F)c1 [Example 9] | 6% | 2.83 nM |  |  | 6300 nM |  |  |
| Cc1ccccc1-c1cc(N2CCN(C)CC2)ncc1N(C)C(=O)C(C)(C)c1cc(C(F)(F)F)cc(C(F)(F)F)c1 [netupitant] |  |  |  |  |  |  | inhibitory effect on CYP3A4 |
| COC1CN(c2cc(-c3ccc(F)cc3C)c(N(C)C(=O)C(C)(C)c3cc(C(F)(F)F)cc(C(F)(F)F)c3)cn2)CCC1CC(=O)O (centres unmarked) [Example 5, [5′-{[2-(3,5-Bistrifluoromethylphenyl)-2-methylpropionyl]methylamino}-4′-(4-fluoro-2-methylphenyl)-3-methoxyl-3,4,5,6-tetrahydro-2H-[1,2′]bipyridinyl-4-yl]acetic acid] | 49% | 3.29 nM | 97% | 111 nM | 5500 nM |  |  |

Now from value to molecule, other results behind:

| remaining activity at 0.1 µM (human NK1 receptor [1]) | IC50 (human NK1 receptor [2]) | Inhibition (foot-tapping inhibition rate) (NK1 receptor) | concentration at 4 h [4] | IC50 (CYP3A4 [3]; [6]) | SMILES | IC50 (CYP3A4 [3]) | inhibitory effect on CYP3A4 (reported) (CYP3A4 [5]) |
| --- | --- | --- | --- | --- | --- | --- | --- |
| 54% | 2.53 nM | 81% | 167 nM | 13000 nM | Cc1ccccc1-c1cc(N2CCC(CC(=O)O)CC2)ncc1N(C)C(=O)C(C)(C)c1cc(C(F)(F)F)cc(C(F)(F)F)c1 [Example 2, (5′-{[2-(3,5-Bistrifluoromethylphenyl)-2-methylpropionyl]methylamino}-4′-ortho-tolyl-3,4,5,6-tetrahydro-2H-[1,2]bipyridinyl-4-yl)acetic acid] |  |  |
| 13% | 4.61 nM | 100% | 262 nM | 3700 nM | Cc1cc(F)ccc1-c1cc(N2CCC(CC(=O)O)C(C)(C)C2)ncc1N(C)C(=O)C(C)(C)c1cc(C(F)(F)F)cc(C(F)(F)F)c1 (centres unmarked) [Example 3] |  |  |
| 6% | 4.65 nM |  |  | 4100 nM | Cc1cc(F)ccc1-c1cc(N2CCC(C(C)(C)C(=O)O)CC2)ncc1N(C)C(=O)C(C)(C)c1cc(C(F)(F)F)cc(C(F)(F)F)c1 [Example 7, [5′-{[2-(3,5-Bistrifluoromethylphenyl)-2-methylpropionyl]methylamino}-4′-(4-fluoro-2-methylphenyl)-3,4,5,6-tetrahydro-2H-[1,2′]bipyridinyl-4-yl]-2-methylpropionic acid] |  |  |
| 16% | 3.54 nM | 100% | 179 nM | 4800 nM | Cc1cc(F)ccc1-c1cc(N2CCC(CC(=O)O)C(C)C2)ncc1N(C)C(=O)C(C)(C)c1cc(C(F)(F)F)cc(C(F)(F)F)c1 (centres unmarked) [Example 4] |  |  |
